Test results reported in ChEMBL document CHEMBL4665709, “Rational Avoidance of Protease Cleavage Sites and Symmetrical End-Tagging Significantly Enhances the Stability and Therapeutic Potential of Antimicrobial Peptides” (J Med Chem, 2020).
≈ marks a conversion by molar mass, not a printed value. Calls of active or inactive are those of the source. The calls are words filed in the database; no cut-off is given here. Where a SMILES comes first, the peptide text is derived from it.

Tests used:
[1] = Therapeutic index, ratio of MHC for human RBC to geometric mean of peptide MIC for Staphylococcus epidermidis ATCC 12228; type: toxicity; settings: human red blood cells (RBC), read-out: TI
[2] = Therapeutic index, ratio of MHC for human RBC to geometric mean of peptide MIC for Enterococcus faecalis ATCC 29212; type: toxicity; settings: human red blood cells (RBC), read-out: TI
[3] = Therapeutic index, ratio of MHC for human RBC to geometric mean of peptide MIC for Staphylococcus aureus 11011; type: toxicity; settings: human red blood cells (RBC), read-out: TI
Cell membrane [4] = test: Disruption of membrane integrity in Escherichia coli ATCC 25922 assessed as induction of membrane rupture at 0.5 to 2 times MIC after 1 hr by SYTO-9/PI-staining based fluorescence microscopy
Cell membrane [5] = test: Disruption of membrane integrity in Staphylococcus aureus ATCC 29213 assessed as induction of membrane rupture after 1 hr by PI-staining based flow cytometry analysis
Cell membrane [6] = test: Disruption of membrane integrity in Escherichia coli ATCC 25922 assessed as induction of membrane rupture after 1 hr by PI-staining based flow cytometry analysis; type: subcellular
Escherichia coli [7] = test: Antibacterial activity against Escherichia coli ATCC 25922 infected in C57BL/6 mouse assessed as reduction in lesion in liver at 10 mg/kg, ip measured after 11 hrs by hematoxylin and eosin staining based assay; type: functional, organism-based
Staphylococcus aureus [8] = test: Antibacterial activity against Staphylococcus aureus ATCC 29213 after 18 to 24 hrs by CLSI-based broth microdilution method; type: functional; settings: time hrs 18-24
Staphylococcus aureus [9] = test: Antibacterial activity against Staphylococcus aureus 11011 after 18 to 24 hrs by CLSI-based broth microdilution method; type: functional; settings: time hrs 18-24
Escherichia coli [10] = test: Antibacterial activity against Escherichia coli UB1005 after 18 to 24 hrs by CLSI-based broth microdilution method; type: functional; settings: time hrs 18-24
Salmonella typhimurium = test: Antibacterial activity against Salmonella typhimurium 14028 after 18 to 24 hrs by CLSI-based broth microdilution method; type: functional, Salmonella enterica subsp. enterica serovar Typhimurium; settings: Salmonella enterica, time hrs 18-24
[11] = tested on: Staphylococcus epidermidis; test: Antibacterial activity against Staphylococcus epidermidis ATCC 12228 after 18 to 24 hrs by CLSI-based broth microdilution method; type: functional; settings: time hrs 18-24
Streptococcus agalactiae = test: Antibacterial activity against Streptococcus agalactiae H92 after 18 to 24 hrs by CLSI-based broth microdilution method; type: functional; settings: time hrs 18-24
[12] = Cytotoxicity against HEK-293T cells assessed as cell viability at 128 uM by MTT assay relative to control; type: cell-based; settings: human, read-out: Activity
Escherichia coli [13] = test: Antibacterial activity against Escherichia coli ATCC 25922 after 18 to 24 hrs in presence of 4.5 mM K+ by CLSI-based broth microdilution method; type: functional; settings: time hrs 18-24
Escherichia coli [14] = test: Antibacterial activity against Escherichia coli ATCC 25922 after 18 to 24 hrs in presence of 6 uM NH4+ by CLSI-based broth microdilution method; type: functional; settings: time hrs 18-24
Escherichia coli [15] = test: Antibacterial activity against Escherichia coli ATCC 25922 after 18 to 24 hrs in presence of 50% human serum by CLSI-based broth microdilution method; type: functional; settings: time hrs 18-24
Staphylococcus aureus [16] = test: Antibacterial activity against Staphylococcus aureus ATCC 29213 after 18 to 24 hrs in presence of 150 mM Na+ by CLSI-based broth microdilution method; type: functional; settings: time hrs 18-24
Staphylococcus aureus [17] = test: Antibacterial activity against Staphylococcus aureus ATCC 29213 after 18 to 24 hrs in presence of 4.5 mM K+ by CLSI-based broth microdilution method; type: functional; settings: time hrs 18-24
Staphylococcus aureus [18] = test: Antibacterial activity against Staphylococcus aureus ATCC 29213 after 18 to 24 hrs in presence of 6 uM NH4+ by CLSI-based broth microdilution method; type: functional; settings: time hrs 18-24
[19] = Stability of compound at 100 degreeC after 30 to 90 mins; type: physicochemical; settings: time 30-90 min
Staphylococcus aureus [20] = test: Antibacterial activity against Staphylococcus aureus 29213 with 0.0625-2 mg/mL trypsin for 1 hr followed by test compound addition measured after 4 to 8 hrs by CLSI-based broth microdilution method; type: functional, organism-based; settings: time hrs 4-8
Staphylococcus aureus [21] = test: Antibacterial activity against Staphylococcus aureus 29213 with 0.0625-2 mg/mL pepsin for 1 hr followed by test compound addition measured after 4 to 8 hrs by CLSI-based broth microdilution method; type: functional, organism-based; settings: time hrs 4-8
[22] = Toxicity in C57BL/6 mouse assessed as effect on creatinine level at 20 mg/kg, ip measured after 5 days; type: organism-based; settings: in vivo, 120 h, time 5 day
[23] = Toxicity in C57BL/6 mouse assessed as effect on blood urea nitrogen level at 20 mg/kg, ip measured after 5 days; type: organism-based; settings: in vivo, 120 h, time 5 day
[24] = Toxicity in C57BL/6 mouse assessed as effect on aspartate aminotransferase level at 20 mg/kg, ip measured after 5 days; type: organism-based; settings: in vivo, 120 h, time 5 day
[25] = Toxicity in C57BL/6 mouse assessed as effect on aspartate aminotransferase level at 10 mg/kg, ip measured after 5 days; type: organism-based; settings: in vivo, 120 h, time 5 day
Escherichia coli [26] = test: Antibacterial activity against Escherichia coli ATCC 25922 infected in C57BL/6 mouse assessed as reduction in bacterial load in lung at 10 mg/kg, ip measured after 11 hrs (reference value: 6.48 log CFU/g); type: functional
Escherichia coli [27] = test: Antibacterial activity against Escherichia coli ATCC 25922 infected in C57BL/6 mouse assessed as reduction in inflammatory cell infiltration in lung at 10 mg/kg, ip measured after 11 hrs by hematoxylin and eosin staining based assay; type: functional, organism-based
Escherichia coli [28] = test: Antibacterial activity against Escherichia coli ATCC 25922 infected in C57BL/6 mouse reduction in inflammatory cell infiltration in liver at 10 mg/kg, ip measured after 11 hrs by hematoxylin and eosin staining based assay; type: functional, organism-based
[29] = Stability of compound assessed as pepsin (unknown origin)-mediated drug degradation after 8 hrs by RP-HPLC analysis; type: ADME; settings: human
Trypsin = Trypsin (Homo sapiens, UniProt P07477+P07478+P35030); test: Stability of compound assessed as trypsin (unknown origin)-mediated drug degradation after 8 hrs by SDS-PAGE analysis; type: ADME, protein assay
Cell membrane [30] = test: Induction of outer membrane permeabilization in Escherichia coli ATCC 25922 after 30 mins by NPN-dye based assay
Cell membrane [31] = test: Induction of cytoplasmic membrane depolarization in Escherichia coli ATCC 25922 at 0.5 to 2 times MIC up to 1000 secs by DiSC3-5 dye-based fluorescence assay; type: subcellular; settings: time sec <=1000
Cell membrane [32] = test: Induction of membrane in permeabilization Staphylococcus aureus ATCC 29213 after 1 hr by FITC/PI fluorescence staining-based confocal microscopy analysis
Cell membrane [33] = test: Disruption of membrane integrity in Escherichia coli ATCC 25922 assessed as induction of membrane rupture at 2 times MIC after 1 hr by PI-staining based flow cytometry analysis relative to control
Cell membrane [34] = test: Disruption of membrane integrity in Staphylococcus aureus ATCC 29213 assessed as induction of membrane rupture at 2 times MIC after 1 hr by PI-staining based flow cytometry analysis
Cell membrane [35] = test: Induction of morpholoical changes in membrane of Escherichia coli ATCC 25922 assessed as breakage in bacterial membrane at 1 times MIC after 1 hr by scanning electron microscopy
Cell membrane [36] = test: Induction of structural changes in membrane of Staphylococcus aureus ATCC 29213 assessed as membrane damage at 1 times MIC after 1 hr by transmission electron microscopy; type: subcellular

CC[C@H](C)[C@H](N)C(=O)N[C@H](C(=O)N[C@H](C(=O)N[C@@H](CS)C(=O)N[C@@H](CCCNC(=N)N)C(=O)N[C@@H](CCCCN)C(=O)N1CCC[C@H]1C(=O)N[C@H](C(=O)N[C@H](C(=O)N[C@@H](CS)C(=O)N[C@@H](CCCNC(=N)N)C(=O)N[C@@H](CCCCN)C(=O)N1CCC[C@H]1C(=O)N[C@H](C(=O)N[C@H](C(=O)N[C@@H](CS)C(=O)N[C@@H](CCCNC(=N)N)C(=O)N[C@@H](CCCCN)C(=O)N1CCC[C@H]1C(=O)N[C@H](C(=O)N[C@H](C(=O)N[C@@H](CS)C(=O)N[C@@H](CCCNC(=N)N)C(=O)N[C@@H](CCCCN)C(=O)N1CCC[C@H]1C(=O)N[C@H](C(=O)N[C@H](C(=O)N[C@H](C(N)=O)[C@@H](C)CC)[C@@H](C)CC)[C@@H](C)CC)[C@@H](C)CC)[C@@H](C)CC)[C@@H](C)CC)[C@@H](C)CC)[C@@H](C)CC)[C@@H](C)CC)[C@@H](C)CC)[C@@H](C)CC (H-IIICRKPIICRKPIICRKPIICRKPIII-NH2)
selectivity ratio [1]: 28.5
selectivity ratio [2]: 28.5
selectivity ratio [3]: 28.5
Activity (Cell membrane [4]): Active
Activity (Cell membrane [5]): Dose-dependent effect
Activity (Cell membrane [6]): Dose-dependent effect
Activity (Escherichia coli [7]): Active
MIC (Staphylococcus aureus [8]): 8 µM (≈ 26.5 µg/mL)
MIC (Staphylococcus aureus [9]): 4 µM (≈ 13.3 µg/mL)
MIC (Escherichia coli [10]): 2 µM (≈ 6.63 µg/mL)
MIC (Salmonella typhimurium): 2 µM (≈ 6.63 µg/mL)
MIC [11]: 4 µM (≈ 13.3 µg/mL)
MIC (Streptococcus agalactiae): 2 µM (≈ 6.63 µg/mL)
viability at 128 µM [12]: > 90%
MIC (Escherichia coli [13]): 2 µM
MIC (Escherichia coli [14]): 2 µM
MIC (Escherichia coli [15]): 4 µM
MIC (Staphylococcus aureus [16]): 16 µM
MIC (Staphylococcus aureus [17]): 8 µM
MIC (Staphylococcus aureus [18]): 8 µM
Stabilty [19]: Stable
Activity (Staphylococcus aureus [20]): Active
Activity (Staphylococcus aureus [21]): Active
Activity [22]: Non-Toxic
Activity [23]: Non-Toxic
Activity [24]: Non-Toxic
Activity [25]: Non-Toxic
Activity (Escherichia coli [26]): 5.58 log10CFU/g
Activity (Escherichia coli [27]): Active
Activity (Escherichia coli [28]): Active
Stabilty [29]: Stable
Stabilty (Trypsin): Stable
Activity (Cell membrane [30]): Dose-dependent effect
Activity (Cell membrane [31]): Active
Activity (Cell membrane [32]): Active
Activity (Cell membrane [33]): > 90%
Activity (Cell membrane [34]): > 90%
Activity (Cell membrane [35]): Active
Activity (Cell membrane [36]): Active
